Measurements from paper PMC10779871, “Anti-Trypanosomal Bufadienolides from the Oocytes of the Toad Rhinella alata (Anura, Bufonidae)” (Molecules, 2023).
Where two headings read alike, the source gives them in different places.

Tests used:
T. cruzi [1] = test system: T. cruzi; design: method as in PMID 32061723; settings: read-out: IC50 anti-trypanosomal activity; cited from earlier work
Vero cells = test system: Vero cells; design: method as in PMID 32061723; settings: in comparison with bufadienolide 7; cited from earlier work
[2] = test system: Batrachochytrium dendrobatidis; settings: cited from earlier work
T. cruzi trypomastigotes = test: Anti-trypanosomal bioassay, T. cruzi Tulahuen clone C4 expressing β-galactosidase; format: cell-based, Trypanosoma cruzi; settings: for EC50: Trypanosoma cruzi, 120 h, read-out: T. cruzi EC50; for Inhibition of the growth of T. cruzi trypomastigotes (in words): four concentrations, screening concentration of 10 µg/mL
Procedure: Anti-trypanosomal bioassays were performed using the recombinant strain Tulahuen, clone C4, of T. cruzi in the form of trypomastigotes (ATCC, Manassas, VA, USA). This strain expresses the enzyme β-galactosidase. The parasites were incubated at 37 °C under an atmosphere of 5% CO2 in RPMI-1640 culture medium supplemented with L-glutamine,4-(2-hydroxyethyl)-piperazine-1-ethanesulfonic acid (HEPES) buffer, NaHCO3, 10% FBS and 0.05% gentamicin (50 mg/mL). Epithelial kidney monkey Vero cells (ATCC, Manassas, VA, USA) were incubated for 24 h and then infected with the parasites 24 h prior to the addition of the compounds. After additional 24 h of infection, the compounds (1–7) were dissolved in DMSO and tested at 10, 2, 0.4 and 0.08 µg/mL for five days. The drug benznidazole was used as a positive control. Chlorophenol-red-β-D-galactopyranoside (Roche Applied Science) was added to each well and then allowed to react with the β-galactosidase of the rest of the living parasites for 4.5 h to quantify the biological activity. Absorbance was measured at 570 nm using a plate reader (Sinergy HT, BioTek Instruments Inc., Winooski, VT, USA).
(§1) All bioassays represent independent analysis and were carried out in duplicate. The data analysis complement Wizard of Excel 2000 (Microsoft, Seattle, WA, USA) was used for the statistical analysis of the 50% inhibiting (IC50) and cytotoxic (CC50) concentration values by adjusting the dose-response curve to a sigmoidal model.

[3] = Cytotoxicity assay (MTT) on Vero cells; format: cell-based; settings: monkey, five days, read-out: VERO CELL CC50
Procedure: Epithelial kidney monkey Vero cells were incubated at 37 °C in 96-well plates under an atmosphere of 5% CO2, using RPMI-1640 medium (Sigma-Aldrich, St. Louis, MO, USA) supplemented with 0.05% gentamicin (50 mg/mL) and 10% FBS (fetal bovine serum; Gibco, Invitrogen, Carlsbad, CA, USA). Cells were allowed to adhere for one day before incubation for five days with the compounds. Doxorubicin and DMSO were used as positive and negative controls, respectively. When the incubation period ended, 3-(4, 5-di-methyl-thiazol-2-yl)-2, 5-di-phenyl-tetra-zolium bromide (MTT) was added to the wells, and after 4 h, absorbance was measured at 570 nm using a color plate reader. Cytotoxicity was assessed colorimetrically by calculating the capacity of the remaining Vero cells to reduce the yellow MTT into the dark purple formazan product, as reported.
as §1

[4] = cited from earlier work
T. cruzi [5] = settings: previous study; cited from earlier work
mouse macrophages = settings: cited from earlier work
erythrocytes = settings: cited from earlier work
(Na+)ATPase = settings: cited from earlier work
[6] = trypomastigote form, Tulahuen clone C4, five days, tested at 10, 2, 0.4 and 0.08 µg/mL
[7] = monkey (Vero host cells), Trypanosoma cruzi (parasite), read-out: Selectivity (CC50/EC50)

SMILES | EC50 (T. cruzi trypomastigotes; [6]) | selectivity ratio (T. cruzi trypomastigotes; [7]) | CC50 [3] | Inhibition of the growth of T. cruzi trypomastigotes (in words) (T. cruzi trypomastigotes) | other results
C[C@]12CC[C@H]3[C@@H](CC[C@@H]4C[C@@H](O)CC[C@@]43CO)[C@@]1(O)CC[C@@H]2c1ccc(=O)oc1 [19-hydroxy-bufalin] |  |  |  |  | IC50 (T. cruzi [1]): 19.4 µM; Cytotoxicity against Vero cells (in words) (Vero cells): low cytotoxicity
C[C@]12CC[C@H](O)C[C@H]1CC[C@@H]1[C@@H]2[C@H](O)C(=O)[C@]2(C)[C@@H](c3ccc(=O)oc3)CC[C@]12O [Arenobufagin] |  |  |  |  | Inhibition of Batrachochytrium dendrobatidis in vitro (in words) [2]: inhibit
O=C(Cn1ccnc1[N+](=O)[O-])NCc1ccccc1 [Benznidazole, reference compound] | 2.73 ± 0.1 µM | 18.8 | 51.4 ± 6 µM |  | 
CC12CCC3C(CCC4(O)CC(O)CCC34C=O)C1(O)CC(O)C2c1ccc(=O)oc1 (stereo not drawn) [Compound 1, 16β-hydroxyl-hellebrigenin] | 22.8 ± 4.11 µM | > 5 | > 135 µM | reduce the growth | 
C[C@]12CC[C@H](O)C[C@H]1CC[C@@H]1[C@@H]2CC[C@]2(C)[C@@H](c3ccc(=O)oc3)[C@@H](O)C[C@]12O [Compound 2, desacetyl-bufotalin] |  |  | > 28 µM |  | T. cruzi EC50 (T. cruzi trypomastigotes; [6]): Inactive; melting point: 71 °C
CCC(=O)OC1C(c2ccc(=O)oc2)C2(C)CCC3C(CCC4(O)CC(O)CCC34C=O)C23OC13 (stereo not drawn) [Compound 3, 19-formyl-dyscinobufotalin] | 0.19 ± 0.07 µM | 1.16 | 0.22 ± 0.09 µM | reduce the growth | 
CC(=O)O[C@H]1C[C@]2(O)[C@@H]3CC[C@@H]4C[C@@H](O)CC[C@]4(C)[C@H]3CC[C@]2(C)[C@H]1c1ccc(=O)oc1 [Compound 4, bufotalin] | 19.6 ± 2 µM | > 2 | > 46 µM | reduce the growth | 
CC(=O)O[C@H]1[C@H]2O[C@]23[C@@H]2CC[C@]4(O)C[C@@H](O)CC[C@]4(C)[C@H]2CC[C@]3(C)[C@H]1c1ccc(=O)oc1 [Compound 5, cinobufotalin] | 27.8 ± 3.77 µM | 0.07 | 1.88 ± 0.2 µM | reduce the growth | 
CCC(=O)OC1C(c2ccc(=O)oc2)C2(C)CCC3C(CCC4(O)CC(O)CCC34C)C23OC13 (stereo not drawn) [Compound 6, dyscinobufotalin] | 12.3 ± 1.87 µM | < 0.01 | 0.02 ± 0.002 µM | reduce the growth | 
C[C@]12CC[C@H](O)C[C@H]1CC[C@@H]1[C@@H]2CC[C@]2(C)[C@@H](c3ccc(=O)oc3)CC[C@]12O [Compound 7, bufalin] |  |  |  | reduce the growth | EC50 (T. cruzi trypomastigotes; TULAHUEN): 3.93 ± 0.57 µM; Selectivity (CC50/EC50) (T. cruzi trypomastigotes; cytotoxicity on Vero cells/anti-trypanosomal activity ratio): 2.69; selectivity ratio at 5 days (T. cruzi trypomastigotes; monkey (Vero host cells), Trypanosoma cruzi (parasite), cytotoxicity on Vero cells/anti-trypanosomal activity ratio, read-out: Selectivity (CC50/EC50)): 2.7; CC50 at 5 days [3]: 10.6 ± 1.54 µM
COc1cccc2c1C(=O)c1c(O)c3c(c(O)c1C2=O)C[C@@](O)(C(=O)CO)C[C@@H]3O[C@H]1C[C@H](N)[C@H](O)[C@H](C)O1 [Doxorubicin, reference compound] |  |  | 0.23 µM |  | 
Clc1ccc(C2CC3CCC2N3)cn1 (stereo not drawn) [epibatidine] |  |  |  |  | Analgesic potency relative to morphine [4]: 200 times more potent than morphine
C[C@]12CC[C@H]3[C@@H](CC[C@]4(O)C[C@@H](O)CC[C@]34C=O)[C@@]1(O)CC[C@@H]2c1ccc(=O)oc1 [hellebrigenin] |  |  |  |  | Trypanocidal activity (T. cruzi [5]): 91.7 µg/mL; Cytotoxicity on mouse macrophages (in words) (mouse macrophages): no toxic effects; Cytotoxicity on erythrocytes (in words) (erythrocytes): no toxic effects
C[C@@H]1O[C@@H](O[C@H]2C[C@@H](O)[C@]3(CO)[C@H]4[C@H](O)C[C@]5(C)[C@@H](C6=CC(=O)OC6)CC[C@]5(O)[C@@H]4CC[C@]3(O)C2)[C@H](O)[C@H](O)[C@H]1O [ouabain] |  |  |  |  | Inhibition of enzymatic activity of (Na+)ATPase (in words) ((Na+)ATPase): not inhibited
C[C@]12CC[C@H](O)C[C@@]1(O)CC[C@@H]1[C@@H]2CC[C@]2(C)[C@@H](c3ccc(=O)oc3)CC[C@]12O [telocinobufagin] |  |  |  |  | Trypanocidal activity (T. cruzi [5]): inactive; Inhibition of Batrachochytrium dendrobatidis in vitro (in words) [2]: inhibit; Cytotoxicity on mouse macrophages (in words) (mouse macrophages): no toxic effects; Cytotoxicity on erythrocytes (in words) (erythrocytes): no toxic effects
C[C@]12CC[C@H](O)C[C@H]1CC[C@@H]1[C@@H]2[C@H](O)C[C@]2(C)[C@@H](c3ccc(=O)oc3)CC[C@]12O [γ-bufotalin] |  |  |  |  | Inhibition of Batrachochytrium dendrobatidis in vitro (in words) [2]: inhibit
